Measurements reported in patent US20200055839A1 (priority 2017, published 2020).

tested on: NL-RLuc virus; test: Inhibition of HIV replication (NL-RLuc virus, luciferase readout in MT-2 cells); format: cell-based; details: Human immunodeficiency virus 1, MT2, 120 h, MT-2 cells infected with NL-RLuc virus, 5 days of incubation, 10% FBS, at least 2 experiments
Procedure, shortened: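 EC50 derived via median effect equation from at least 2 experiments, using luciferase expression as virus-growth readout. Replication-competent NL-RLuc reporter virus (nef partly replaced by Renilla luciferase) infected MT-2 cells with serial compound dilutions; 5-day incubation in RPMI 1640 plus 10% FBS.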

Q: For `CCCCCCCOc1ccc(-c2cnc(C)c([C@H](OC(C)(C)C)C(=O)O)c2N2CCC(C)(C)CC2)nc1` [Example 326, (2S)-2-(tert-butoxy)-2-[4′-(4,4-dimethylpiperidin-1-yl)-5-(heptyloxy)-6′-methyl-[2,3′-bipyridine]-5′-yl]acetic acid], which EC50 is on record?
A: 3 nM

Q: With `Cc1ncc(-c2ccc(OCCc3c(F)cccc3F)cn2)c(N2CCC(C)(C)CC2)c1[C@H](OC(C)(C)C)C(=O)O` [Example 327, (2S)-2-(tert-butoxy)-2-{5-[2-(2,6-difluorophenyl)ethoxy]-4′-(4,4-dimethylpiperidin-1-yl)-6′-methyl-[2,3′-bipyridine]-5′-yl}acetic acid] as the compound, how does the EC50 read?
A: 5 nM

Q: `Cc1ncc(-c2ccc(OCCc3cccc(F)c3F)cn2)c(N2CCC(C)(C)CC2)c1[C@H](OC(C)(C)C)C(=O)O` [Example 329, (2S)-2-(tert-butoxy)-2-{5-[2-(2,3-difluorophenyl)ethoxy]-4′-(4,4-dimethylpiperidin-1-yl)-6′-methyl-[2,3′-bipyridine]-5′-yl}acetic acid] was tested. Which EC50 did it give?
A: 0.5 nM

Q: `COc1ccc(CCOc2ccc(-c3cnc(C)c([C@H](OC(C)(C)C)C(=O)O)c3N3CCC(C)(C)CC3)nc2)cc1F` [Example 330, (2S)-2-(tert-butoxy)-2-[4′-(4,4-dimethylpiperidin-1-yl)-5-[2-(3-fluoro-4-methoxyphenyl)ethoxy]-6′-methyl-[2,3′-bipyridine]-5′-yl]acetic acid] was tested. Which EC50 did it give?
A: 0.4 nM

Q: `Cc1ccc(CCOc2ccc(-c3cnc(C)c([C@H](OC(C)(C)C)C(=O)O)c3N3CCC(C)(C)CC3)nc2)cc1Cl` [Example 331, (2S)-2-(tert-butoxy)-2-{5-[2-(3-chloro-4-methylphenyl)ethoxy]-4′-(4,4-dimethylpiperidin-1-yl)-6′-methyl-[2,3′-bipyridine]-5′-yl}acetic acid] was tested. Which EC50 did it give?
A: 0.5 nM

Q: How did the EC50 turn out when `Cc1ccc(CCOc2ccc(-c3cnc(C)c([C@H](OC(C)(C)C)C(=O)O)c3N3CCC(C)(C)CC3)nc2)cc1F` [Example 332, (2S)-2-(tert-butoxy)-2-[4′-(4,4-dimethylpiperidin-1-yl)-5-[2-(3-fluoro-4-methylphenyl)ethoxy]-6′-methyl-[2,3′-bipyridine]-5′-yl]acetic acid] was run?
A: 0.5 nM

Q: How did the EC50 turn out when `CCCCCCOc1ccc(-c2cnc(C)c([C@H](OC(C)(C)C)C(=O)O)c2N2CCC(C)(C)CC2)nc1` [Example 334, (2S)-2-(tert-butoxy)-2-[4′-(4,4-dimethylpiperidin-1-yl)-5-(hexyloxy)-6′-methyl-[2,3′-bipyridine]-5′-yl]acetic acid] was run?
A: 4 nM

Q: How did the EC50 turn out when `Cc1ncc(-c2ccc(OCc3ccccc3Cl)cn2)c(N2CCC(C)(C)CC2)c1[C@H](OC(C)(C)C)C(=O)O` [Example 336, (2S)-2-(tert-butoxy)-2-{5-[(2-chlorophenyl)methoxy]-4′-(4,4-dimethylpiperidin-1-yl)-6′-methyl-[2,3′-bipyridine]-5′-yl}acetic acid] was run?
A: 2 nM

Q: Which EC50 does the source give for `Cc1ncc(-c2ccc(OCc3cccc(Cl)c3)cn2)c(N2CCC(C)(C)CC2)c1[C@H](OC(C)(C)C)C(=O)O` [Example 337, (2S)-2-(tert-butoxy)-2-{5-[(3-chlorophenyl)methoxy]-4′-(4,4-dimethylpiperidin-1-yl)-6′-methyl-[2,3′-bipyridine]-5′-yl}acetic acid] here?
A: 2 nM

Q: Which EC50 does the source give for `Cc1ncc(-c2ccc(OCc3ccc(Cl)cc3)cn2)c(N2CCC(C)(C)CC2)c1[C@H](OC(C)(C)C)C(=O)O` [Example 338, (2S)-2-(tert-butoxy)-2-{5-[(4-chlorophenyl)methoxy]-4′-(4,4-dimethylpiperidin-1-yl)-6′-methyl-[2,3′-bipyridine]-5′-yl}acetic acid] here?
A: 1 nM

Q: `COc1ccc(COc2ccc(-c3cnc(C)c([C@H](OC(C)(C)C)C(=O)O)c3N3CCC(C)(C)CC3)nc2)cc1` [Example 339, (2S)-2-(tert-butoxy)-2-[4′-(4,4-dimethylpiperidin-1-yl)-5-[(4-methoxyphenyl)methoxy]-6′-methyl-[2,3′-bipyridine]-5′-yl]acetic acid] was tested. Which EC50 did it give?
A: 2 nM

Q: `COc1cccc(COc2ccc(-c3cnc(C)c([C@H](OC(C)(C)C)C(=O)O)c3N3CCC(C)(C)CC3)nc2)c1` [Example 340, (2S)-2-(tert-butoxy)-2-[4′-(4,4-dimethylpiperidin-1-yl)-5-[(3-methoxyphenyl)methoxy]-6′-methyl-[2,3′-bipyridine]-5′-yl]acetic acid] was tested. Which EC50 did it give?
A: 2 nM

Q: Which EC50 does the source give for `Cc1ncc(-c2ccc(OCCCCc3ccccc3)cn2)c(N2CCC(C)(C)CC2)c1[C@H](OC(C)(C)C)C(=O)O` [Example 341, (2S)-2-(tert-butoxy)-2-[4′-(4,4-dimethylpiperidin-1-yl)-6′-methyl-5-(4-phenylbutoxy)-[2,3′-bipyridine]-5′-yl]acetic acid] here?
A: 3 nM

Q: With `Cc1ccc(COc2ccc(-c3cnc(C)c([C@H](OC(C)(C)C)C(=O)O)c3N3CCC(C)(C)CC3)nc2)cc1` [Example 342, (2S)-2-(tert-butoxy)-2-[4′-(4,4-dimethylpiperidin-1-yl)-6′-methyl-5-[(4-methylphenyl)methoxy]-[2,3′-bipyridine]-5′-yl]acetic acid] as the compound, how does the EC50 read?
A: 2 nM

Q: With `Cc1ncc(-c2ccc(OCc3cccc(F)c3)cn2)c(N2CCC(C)(C)CC2)c1[C@H](OC(C)(C)C)C(=O)O` [Example 343, (2S)-2-(tert-butoxy)-2-[4′-(4,4-dimethylpiperidin-1-yl)-5-[(3-fluorophenyl)methoxy]-6′-methyl-[2,3′-bipyridine]-5′-yl]acetic acid] as the compound, how does the EC50 read?
A: 2 nM

Q: For `Cc1ncc(-c2ccc(OCc3ccc(F)cc3)cn2)c(N2CCC(C)(C)CC2)c1[C@H](OC(C)(C)C)C(=O)O` [Example 344, (2S)-2-(tert-butoxy)-2-[4′-(4,4-dimethylpiperidin-1-yl)-5-[(4-fluorophenyl)methoxy]-6′-methyl-[2,3′-bipyridine]-5′-yl]acetic acid], which EC50 is on record?
A: 2 nM

Q: Which EC50 does the source give for `Cc1ncc(-c2ccc(OCCCC(C)C)cn2)c(N2CCC(C)(C)CC2)c1[C@H](OC(C)(C)C)C(=O)O` [Example 345, (2S)-2-(tert-butoxy)-2-[4′-(4,4-dimethylpiperidin-1-yl)-6′-methyl-5-[(4-methylpentyl)oxy]-[2,3′-bipyridine]-5′-yl]acetic acid] here?
A: 2 nM

Q: With `Cc1ccccc1COc1ccc(-c2cnc(C)c([C@H](OC(C)(C)C)C(=O)O)c2N2CCC(C)(C)CC2)nc1` [Example 346, (2S)-2-(tert-butoxy)-2-[4′-(4,4-dimethylpiperidin-1-yl)-6′-methyl-5-[(2-methylphenyl)methoxy]-[2,3′-bipyridine]-5′-yl]acetic acid] as the compound, how does the EC50 read?
A: 5 nM

Q: `Cc1cccc(COc2ccc(-c3cnc(C)c([C@H](OC(C)(C)C)C(=O)O)c3N3CCC(C)(C)CC3)nc2)c1` [Example 347, (2S)-2-(tert-butoxy)-2-[4′-(4,4-dimethylpiperidin-1-yl)-6′-methyl-5-[(3-methylphenyl)methoxy]-[2,3′-bipyridine]-5′-yl]acetic acid] was tested. Which EC50 did it give?
A: 1 nM

Q: For `Cc1ncc(-c2ccc(OCc3ccccc3F)cn2)c(N2CCC(C)(C)CC2)c1[C@H](OC(C)(C)C)C(=O)O` [Example 348, (2S)-2-(tert-butoxy)-2-[4′-(4,4-dimethylpiperidin-1-yl)-5-[(2-fluorophenyl)methoxy]-6′-methyl-[2,3′-bipyridine]-5′-yl]acetic acid], which EC50 is on record?
A: 0.6 nM

Q: For `Cc1ncc(-c2ccc(O[C@@H](C)c3ccccc3)cn2)c(N2CCC(C)(C)CC2)c1[C@H](OC(C)(C)C)C(=O)O` [Example 349, (2S)-2-(tert-butoxy)-2-[4′-(4,4-dimethylpiperidin-1-yl)-6′-methyl-5-[(1S)-1-phenylethoxy]-[2,3′-bipyridine]-5′-yl]acetic acid], which EC50 is on record?
A: 1 nM
